Assay results: article PMC12424025, “Deep Structural Characterization of Protein-Bound Lipids via Native MS and Ultraviolet Photodissociation” (Analytical Chemistry, 2025)

Biological target: T1, AqpZ (Escherichia coli, UniProt P60844)
T1 construct: C-terminal GFP-His tag cut by TEV protease; expressed in E. coli BL21(DE3); DDM-purified, C8E4 for native MS; homotetramer about 102 kDa with lipids (17-, m/z 6000)
T1 sequence (P60844 1-231): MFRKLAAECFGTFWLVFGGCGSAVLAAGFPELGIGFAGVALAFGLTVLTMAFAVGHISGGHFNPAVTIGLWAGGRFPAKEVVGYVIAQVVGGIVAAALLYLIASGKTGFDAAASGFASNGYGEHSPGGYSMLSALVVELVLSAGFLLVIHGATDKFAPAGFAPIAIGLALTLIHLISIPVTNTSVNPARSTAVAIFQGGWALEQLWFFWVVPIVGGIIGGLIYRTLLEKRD
Experiment: native MS with single lipid standard
Type: binding
Settings: 200 mM ammonium acetate pH 7.0, 2xCMC C8E4

Row | SMILES | native MS with single lipid standard
1 | CCCCCCCC/C=C\CCCCCCCC(=O)OC[C@H](COP(=O)(O)OCC(O)COP(=O)(O)OC[C@@H](COC(=O)CCCCCCC/C=C\CCCCCCCC)OC(=O)CCCCCCC/C=C\CCCCCCCC)OC(=O)CCCCCCC/C=C\CCCCCCCC (some centres unmarked) [CDL 18:1(9Z)] | The resulting native mass spectra confirmed that all three lipid classes bind to the membrane protein
2 | CCCCCCCC/C=C\CCCCCCCC(=O)OC[C@H](COP(=O)(O)OCC(O)CO)OC(=O)CCCCCCC/C=C\CCCCCCCC (some centres unmarked) [DOPG] | The resulting native mass spectra confirmed that all three lipid classes bind to the membrane protein
